Test results taken from ChEMBL document CHEMBL4219160, “The discovery of novel diarylpyri(mi)dine derivatives with high level activity against a wide variety of HIV-1 strains as well as against HIV-2” (Bioorg Med Chem, 2018).

Assays:
[1] = system: Human immunodeficiency virus 1; test: Antiviral activity against HIV1 harboring reverse transcriptase Y188L mutant infected in human MT4 cells assessed as protection against virus-induced cytopathic effect after 5 days by MTT assay; format: functional, organism-based; conditions: Human immunodeficiency virus 1, MT4, 120 h
[2] = target: Human immunodeficiency virus type 1 reverse transcriptase (Human immunodeficiency virus 1, UniProt Q72547); test: Inhibition of wild type HIV1 reverse transcriptase using poly (A)/oligo (dT)15 as template/primer assessed as decrease in biotin-dUTP incorporation after 1 hr by ELISA
[3] = system: Human immunodeficiency virus 1; test: Antiviral activity against HIV1 harboring reverse transcriptase F227L/V106A double mutant infected in human MT4 cells assessed as protection against virus-induced cytopathic effect after 5 days by MTT assay; format: functional, organism-based; conditions: Human immunodeficiency virus 1, MT4, 120 h
[4] = system: Human immunodeficiency virus 1; test: Antiviral activity against HIV1 harboring reverse transcriptase E138K mutant infected in human MT4 cells assessed as protection against virus-induced cytopathic effect after 5 days by MTT assay; format: functional, organism-based; conditions: Human immunodeficiency virus 1, MT4, 120 h
[5] = target: Human immunodeficiency virus type 1 reverse transcriptase (Human immunodeficiency virus 1, UniProt Q72547, K103N/Y181C); test: Inhibition of HIV1 reverse transcriptase K103N/Y181C double mutant using poly (A)/oligo (dT)15 as template/primer assessed as decrease in biotin-dUTP incorporation after 1 hr by ELISA
[6] = Cytotoxicity against human MT4 cells assessed as reduction in cell viability after 5 days by MTT assay; format: cell-based
[7] = system: Human immunodeficiency virus 1; test: Antiviral activity against HIV1 harboring reverse transcriptase RES056 double mutant infected in human MT4 cells assessed as protection against virus-induced cytopathic effect after 5 days by MTT assay; format: functional, organism-based; conditions: Human immunodeficiency virus 1, MT4, 120 h
[8] = system: Human immunodeficiency virus 1; test: Antiviral activity against HIV1 harboring reverse transcriptase L100I mutant infected in human MT4 cells assessed as protection against virus-induced cytopathic effect after 5 days by MTT assay; format: functional, organism-based; conditions: Human immunodeficiency virus 1, MT4, 120 h
[9] = system: Human immunodeficiency virus 1; test: Antiviral activity against HIV1 harboring reverse transcriptase K103N mutant infected in human MT4 cells assessed as protection against virus-induced cytopathic effect after 5 days by MTT assay; format: functional, organism-based; conditions: Human immunodeficiency virus 1, MT4, 120 h
[10] = system: Human immunodeficiency virus 2; test: Antiviral activity against HIV2 ROD infected in human MT4 cells assessed as protection against virus-induced cytopathic effect after 5 days by MTT assay; format: functional, organism-based; conditions: Human immunodeficiency virus 2, ISOLATE ROD, MT4, 120 h
[11] = system: Human immunodeficiency virus 1; test: Antiviral activity against HIV1 harboring reverse transcriptase Y181C mutant infected in human MT4 cells assessed as protection against virus-induced cytopathic effect after 5 days by MTT assay; format: functional, organism-based; conditions: Human immunodeficiency virus 1, MT4, 120 h
in vitro = conditions: human, MT4 cells
Description: Selectivity index, ratio of CC50 for human MT4 cells to EC50 for wild type HIV1 3B infected in human MT4 cells

[12] = system: Human immunodeficiency virus 1; test: microbe, parasite or virus in culture; conditions: Human immunodeficiency virus 1, 3B, MT4, 120 h
Description: Antiviral activity against wild type HIV1 3B infected in human MT4 cells assessed as protection against virus-induced cytopathic effect after 5 days by MTT assay

Structure (SMILES) | EC50 [1] | IC50 [2] | EC50 [3] | EC50 [4] | IC50 [5] | CC50 at 120 h [6] | EC50 [7] | EC50 [8] | EC50 [9] | EC50 [10] | EC50 [11] | selectivity ratio (in vitro) | EC50 [12]
Cc1cc(/C=C/C#N)cc(C)c1Oc1cc(Nc2ccc(C#N)cc2)nc(NC2CC2)c1 | > 24800 nM | 350 nM | 5350 nM | 27 nM | 5390 nM | 24800 nM | 2820 nM | 170 nM | 8 nM | > 24800 nM | 210 nM | 7400 | 3.35 nM
Cc1cc(/C=C/C#N)cc(C)c1Oc1cc(NC2CC2)nc(Nc2ccc(C#N)cc2)n1 | 110 nM | 50 nM | 350 nM | 10 nM | 240 nM | 3000 nM | 58 nM | 23 nM | 2.6 nM | > 3000 nM | 35 nM | 1120 | 2.68 nM
Cc1cc(/C=C/C#N)cc(C)c1Oc1cc(NCCN2CCN(C)CC2)nc(Nc2ccc(C#N)cc2)c1 | > 7960 nM | 2190 nM | 5700 nM | 770 nM | 6240 nM | 7960 nM | 1320 nM | 2020 nM | 28 nM | > 7960 nM | 1430 nM | 321 | 24.8 nM
Cc1cc(/C=C/C#N)cc(C)c1Oc1cc(Cl)nc(Nc2ccc(C#N)cc2)n1 | 48 nM | 20 nM | 160 nM | 9.3 nM | 80 nM | 4310 nM | 44 nM | 8.8 nM | 2.4 nM | > 4310 nM | 11 nM | 2560 | 1.69 nM
COCCNc1cc(Oc2c(C)cc(/C=C/C#N)cc2C)nc(Nc2ccc(C#N)cc2)n1 | 51 nM | 40 nM | 220 nM | 6.4 nM | 230 nM | 3190 nM | 42 nM | 9.3 nM | 1.7 nM | 1560 nM | 9.4 nM | 2040 | 1.56 nM
Cc1cc(/C=C/C#N)cc(C)c1Oc1cc(NCCN(C)C)nc(Nc2ccc(C#N)cc2)c1 | > 4270 nM | 830 nM | > 4270 nM | 970 nM | 2470 nM | 4270 nM | 230 nM | 190 nM | 2.7 nM | > 4270 nM | 180 nM | 2240 | 1.91 nM
Cc1cc(/C=C/C#N)cc(C)c1Oc1cc(NCCN(C)C)nc(Nc2ccc(C#N)cc2)n1 | 900 nM | 10 nM | 310 nM | 41 nM | 20 nM | 3040 nM | 27 nM | 10 nM | 2.4 nM | > 3040 nM | 9 nM | 2050 | 1.48 nM
COC(CNc1cc(Oc2c(C)cc(/C=C/C#N)cc2C)nc(Nc2ccc(C#N)cc2)n1)OC | – | 170 nM | – | – | – | 3470 nM | – | – | – | – | – | – | –
Cc1cc(/C=C/C#N)cc(C)c1Oc1cc(NCC2CCCO2)nc(Nc2ccc(C#N)cc2)c1 (stereo unspecified) | > 73600 nM | 630 nM | > 73600 nM | 170 nM | 41200 nM | 73600 nM | 31600 nM | 2600 nM | 48 nM | > 73600 nM | 4540 nM | 2560 | 28.8 nM
Cc1cc(/C=C/C#N)cc(C)c1Oc1cc(NCC2CCCO2)nc(Nc2ccc(C#N)cc2)n1 (stereo unspecified) | > 268000 nM | 440 nM | 172000 nM | 150 nM | 86900 nM | > 268000 nM | 44400 nM | 2890 nM | 91 nM | > 268000 nM | 6970 nM | > 9240 | 29 nM
COCCNc1cc(Oc2c(C)cc(/C=C/C#N)cc2C)cc(Nc2ccc(C#N)cc2)n1 | 41500 nM | 920 nM | 22300 nM | 57 nM | 18100 nM | 58200 nM | 4790 nM | 740 nM | 28 nM | > 58200 nM | 1370 nM | 9330 | 6.24 nM
Cc1ccnc2c1NC(=O)c1cccnc1N2C1CC1 [NEVIRAPINE] | – | – | – | 280 nM | – | > 15000 nM | > 15000 nM | 3250 nM | 10300 nM | – | – | – | 125 nM
Cc1cc(C#N)cc(C)c1Oc1nc(Nc2ccc(C#N)cc2)nc(N)c1Br [ETRAVIRINE] | 21 nM | – | 24 nM | – | – | – | 26 nM | 10 nM | – | – | 20 nM | – | –
Cc1cc(/C=C/C#N)cc(C)c1Oc1cc(Cl)nc(Nc2ccc(C#N)cc2)c1 | > 312000 nM | 180 nM | > 312000 nM | 43 nM | – | > 312000 nM | > 312000 nM | 710 nM | 33 nM | > 312000 nM | 1170 nM | > 39900 | 7.81 nM
C=CCNc1cc(Oc2c(C)cc(/C=C/C#N)cc2C)cc(Nc2ccc(C#N)cc2)n1 | > 82100 nM | 270 nM | ≥ 57400 nM | 43 nM | 31300 nM | 82100 nM | 30400 nM | 630 nM | 27 nM | > 82100 nM | 1090 nM | 8220 | 9.99 nM
C=CCNc1cc(Oc2c(C)cc(/C=C/C#N)cc2C)nc(Nc2ccc(C#N)cc2)n1 | 56 nM | 30 nM | 530 nM | 4.4 nM | 190 nM | 3050 nM | 44 nM | 21 nM | 4.8 nM | > 3050 nM | 13 nM | 2000 | 1.52 nM
Cc1cc(/C=C/C#N)cc(C)c1Oc1cc(NCCN2CCOCC2)nc(Nc2ccc(C#N)cc2)n1 | 98 nM | 140 nM | 180 nM | 7.5 nM | 340 nM | 3540 nM | 21 nM | 10 nM | 1.7 nM | 1420 nM | 7.2 nM | 2310 | 1.54 nM
Cc1cc(/C=C/C#N)cc(C)c1Oc1cc(NCCCN2CCOCC2)nc(Nc2ccc(C#N)cc2)c1 | ≥ 4720 nM | 970 nM | 5010 nM | 110 nM | 7800 nM | ≥ 4720 nM | 700 nM | 530 nM | 5.6 nM | ≥ 4720 nM | 760 nM | ≥ 992 | 4.76 nM
Cc1cc(/C=C/C#N)cc(C)c1Oc1cc(NCCN2CCOCC2)nc(Nc2ccc(C#N)cc2)c1 | > 43200 nM | 740 nM | 4430 nM | 77 nM | 6270 nM | 43200 nM | 430 nM | 240 nM | 1.7 nM | > 42000 nM | 220 nM | 25600 | 1.68 nM
O=C1Nc2ccc(Cl)cc2[C@@](C#CC2CC2)(C(F)(F)F)O1 [EFAVIRENZ] | 130 nM | – | 120 nM | 49 nM | – | > 6340 nM | 110 nM | 47 nM | 110 nM | – | 6 nM | – | –
Cc1cn([C@H]2C[C@H](N=[N+]=[N-])[C@@H](CO)O2)c(=O)[nH]c1=O [ZIDOVUDINE] | – | – | – | 18 nM | – | > 7480 nM | 12 nM | – | – | 8.1 nM | 6 nM | > 658 | 11.4 nM
Cc1cc(/C=C/C#N)cc(C)c1Oc1cc(NCCN2CCNCC2)nc(Nc2ccc(C#N)cc2)n1 | > 3650 nM | 440 nM | > 3650 nM | 940 nM | 1120 nM | 3650 nM | 770 nM | 790 nM | 31 nM | > 3650 nM | 610 nM | 148 | 24.7 nM
Cc1cc(/C=C/C#N)cc(C)c1Oc1cc(NCCC#N)nc(Nc2ccc(C#N)cc2)n1 | 31 nM | 20 nM | 190 nM | 6.5 nM | 100 nM | 1000 nM | 14 nM | 11 nM | 1.2 nM | 320 nM | 9.9 nM | 736 | 1.36 nM
